The test system of one assay is HeLa. Nature of the assay: Antiproliferative activity against human HeLa cells assessed as reduction in cell viability after 48 hrs by MTT assay. Format: functional.
Assay [1] can be described thus: Antiproliferative activity against human MCF7/AZ cells assessed as reduction in cell viability after 48 hrs by MTT assay. In kind it is functional.
Assay [2] deals with Jurkat. Nature of the assay: Induction of apoptosis in human Jurkat cells assessed as apoptotic cells at 50 uM after 24 hrs using annexin-V/Propidium iodide by flow cytometry. Format: functional. A general note: In flow cytometry, cells or beads pass a laser one at a time.
The subject of assay [3] is Jurkat. Nature of the assay: Antiproliferative activity against human Jurkat cells assessed as reduction in cell viability after 48 hrs by MTT assay. Format: functional. (Tetrazolium dyes change colour on reduction, which living cells bring about.)
In another assay the test system is PC-3. Nature of the assay: Antiproliferative activity against human PC3 cells assessed as reduction in cell viability after 72 hrs by MTT assay. In kind it is functional. To be noted: PC-3, 72 h.
In the next assay the test system is LoVo. Nature of the assay: Antiproliferative activity against human LoVo cells assessed as reduction in cell viability after 72 hrs by MTT assay. Format: functional.
In another assay the test system is SK-MEL-28. In words: Antiproliferative activity against human SK-MEL-28 cells assessed as reduction in cell viability after 72 hrs by MTT assay. Format: functional. The note with it: SK-MEL-28, 72 h.
Assay [4] in a line: Antiproliferative activity against human OE21 cells assessed as reduction in cell viability after 72 hrs by MTT assay. Format: functional. The note with it: OE21, 72 h.
Assay [5] in a line: Antiproliferative activity against human Hs683 cells assessed as reduction in cell viability after 72 hrs by MTT assay. Format: functional. To be noted: Hs 683, 72 h.
Another assay has as its system A549. Nature of the assay: Antiproliferative activity against human A549 cells assessed as reduction in cell viability after 72 hrs by MTT assay. The note with it: A549, 72 h. In kind it is functional.
The nature of assay [6]: Antiproliferative activity against human U373 cells assessed as reduction in cell viability after 72 hrs by MTT assay. Format: functional, U-373MG ATCC. To be noted: U373 MG.

By GI50 is commonly meant the concentration that inhibits growth by half.

As to `N#CC1=C(N)OC2=C(C(=O)c3ccccc3C2=O)C1c1c(F)cccc1Cl` (stereo not drawn), the GI50 with HeLa came out at 34.4 µM; in [1] it was 8 µM; with Jurkat [3], 52.3 µM. In addition, in the assay on Jurkat [2], the Activity was found to be 21.3%.

Take `N#CC1=C(N)OC2=C(C(=O)c3ccccc3C2=O)C1c1cccc(Cl)c1` (stereo not drawn): the concentration for 50% growth inhibition (GI50) in the assay on HeLa was determined as 77.5 µM; in assay [1] it was 59.8 µM; in the assay on Jurkat [3] it was 108 µM. Besides, in the assay on Jurkat [2], the Activity stood at 22%.

As for `CC(C)c1ccc(C2C(C#N)=C(N)OC3=C2C(=O)c2ccccc2C3=O)cc1` (stereo not drawn), the GI50 with HeLa was found to be 62.5 µM; in [1], 34 µM; in the assay on Jurkat [3] it was 80.6 µM. Also, the Activity in the assay with Jurkat [2] is listed as 2.9%.

Take `N#CC1=C(N)OC2=C(C(=O)c3ccccc3C2=O)C1c1ccc(OC(F)(F)F)cc1` (stereo not drawn): the values for the GI50 (in the assay on HeLa; in [1]; with Jurkat [3]) were 4.3 µM, 7.1 µM and 105 µM, respectively. The Activity in the assay on Jurkat [2] is listed as 13.5%.

`N#CC1=C(N)OC2=C(C(=O)c3ccccc3C2=O)C1c1ccc(Cl)cc1` (stereo not drawn): the GI50 in the assay on HeLa came to 31.7 µM; in assay [1], 24 µM; in the assay on Jurkat [3] it was 105 µM. In addition, the Activity with Jurkat [2] stood at 23.8%.

Take `N#CC1=C(N)OC2=C(C(=O)c3ccccc3C2=O)C1c1cccc([N+](=O)[O-])c1` (stereo not drawn): the GI50 in the assay with HeLa was found to be 9.1 µM; in [1], 10.8 µM; in the assay on Jurkat [3] it was 19.1 µM. In addition, the Activity with Jurkat [2] is recorded as 33.6%.

As for `N#CC1=C(N)OC2=C(C(=O)c3ccccc3C2=O)C1c1cccs1` (stereo not drawn), the figures for the GI50 (in the assay on HeLa; in assay [1]; in the assay with Jurkat [3]) were 94 µM, 36.9 µM and 82.4 µM, respectively. For the same compound, the Activity in the assay on Jurkat [2] is 11.2%.

Regarding `N#CC1=C(N)OC2=C(C(=O)c3ccccc3C2=O)C1c1cccc(Oc2ccccc2)c1` (stereo not drawn), the concentration for 50% growth inhibition (GI50) with HeLa was 4 µM; in assay [1], 2.2 µM; in the assay with PC-3, 6.2 µM; with LoVo it was 3.4 µM; with SK-MEL-28, 4.5 µM; in assay [4] it was 2.2 µM. For the same compound, the GI50 in assay [5] stood at 5 µM; in the assay with A549, 5 µM; in assay [6] it was 3.4 µM; with Jurkat [3], 17.9 µM. In addition, the Activity in the assay on Jurkat [2] stood at 50%.

For the compound `N#CC1=C(N)OC2=C(C(=O)c3ccccc3C2=O)C1c1ccc([N+](=O)[O-])cc1` (stereo not drawn), the GI50 was 16.8 µM in the assay on HeLa, 9.8 µM in assay [1] and 24.3 µM in the assay with Jurkat [3]. Further, the Activity with Jurkat [2] worked out at 23.1%.

For `N#CC1=C(N)OC2=C(C(=O)c3ccccc3C2=O)C1c1ccc(Br)cc1` (stereo not drawn), the GI50 stood at 30 µM in the assay on HeLa, 22.8 µM in assay [1] and 38.3 µM with Jurkat [3]. For the same compound, in the assay with Jurkat [2], the Activity is recorded as 40.1%.

In the case of `N#CC1=C(N)OC2=C(C(=O)c3ccccc3C2=O)C1c1ccc(C(F)(F)F)cc1` (stereo not drawn), the concentration for 50% growth inhibition (GI50) is 11.8 µM with HeLa, 5.6 µM in assay [1] and 80.5 µM in the assay with Jurkat [3]. In the assay on Jurkat [2], the Activity came to 15.5%.

Turning to `Cc1ccc(C2C(C#N)=C(N)OC3=C2C(=O)c2ccccc2C3=O)o1` (stereo not drawn), the 50% growth inhibitory concentration (GI50) stood at 54.3 µM with HeLa, 51.6 µM in assay [1] and 47.8 µM with Jurkat [3]. The Activity with Jurkat [2] is 57.8%.

In the case of `N#CC1=C(N)OC2=C(C(=O)c3ccccc3C2=O)C1c1c(Cl)cccc1Cl` (stereo not drawn), the 50% growth inhibitory concentration (GI50) in the assay on HeLa was 5.3 µM; in [1], 3.1 µM; with PC-3, 6.2 µM; in the assay with LoVo it was 4.3 µM; in the assay on SK-MEL-28, 17.1 µM; in assay [4] it was 17.4 µM. The GI50 in assay [5] was found to be 19.3 µM; in the assay with A549 it was 40.6 µM; in [6], 12.8 µM; in the assay on Jurkat [3], 172 µM. Besides, the Activity in the assay with Jurkat [2] is listed as 5.1%.

On to `N#CC1=C(N)OC2=C(C(=O)c3ccccc3C2=O)C1c1cccnc1` (stereo not drawn), for which the values for the GI50 (in the assay with HeLa; in assay [1]; in the assay on Jurkat [3]) were 14.2 µM, 3.4 µM and 20.4 µM, respectively. In the assay on Jurkat [2], the Activity was 20.8%.

For `CC1(C)CCC2=C(O1)C(=O)c1ccccc1C2=O` [ALPHA-LAPACHONE], the GI50 is 25 µM in the assay on HeLa; 16.7 µM in [1]; 13 µM in the assay on PC-3; 24.4 µM with LoVo; 4.7 µM with SK-MEL-28; 22.7 µM in assay [4]. The GI50 in assay [5] was 9 µM; in the assay with A549, 16.3 µM; in assay [6] it was 23.1 µM; in the assay on Jurkat [3] it was 75 µM. For the same compound, the Activity with Jurkat [2] was 7.4%.

`N#CC1=C(N)OC2=C(C(=O)c3ccccc3C2=O)C1c1ccccc1Cl` (stereo not drawn): the GI50 in the assay with HeLa is 20.5 µM; in [1] it was 19 µM; with Jurkat [3], 185 µM. The Activity in the assay on Jurkat [2] is listed as 6.3%.

As to `N#CC1=C(N)OC2=C(C(=O)c3ccccc3C2=O)C1c1ccccc1` (stereo not drawn), the GI50 came to 23.5 µM in the assay on HeLa, 18.5 µM in assay [1] and 43.3 µM in the assay with Jurkat [3]. In addition, the Activity in the assay on Jurkat [2] turned out to be 16.7%.

Consider `CC1(C)CCC2=C(O1)c1ccccc1C(=O)C2=O` [LAPACHONE], for which the GI50 with HeLa was 4.6 µM; in assay [1] it was 6 µM; in the assay on PC-3 it was 0.01 µM; in the assay with LoVo it was 0.3 µM; in the assay on SK-MEL-28, 0.6 µM; in assay [4], 0.6 µM. Moreover, the GI50 in assay [5] came to 0.4 µM; in the assay on A549, 0.8 µM; in assay [6] it was 0.4 µM; with Jurkat [3], 6.1 µM. In addition, in the assay with Jurkat [2], the Activity stood at 51%.

For `N#CC1=C(N)OC2=C(C(=O)c3ccccc3C2=O)C1c1ccc(-c2ccccc2)cc1` (stereo not drawn), the GI50 in the assay with HeLa came out at 23.6 µM; in assay [1] it was 26 µM; in the assay on Jurkat [3] it was 122 µM. The Activity with Jurkat [2] is given as 11.2%.

Turning to `N#CC1=C(N)OC2=C(C(=O)c3ccccc3C2=O)C1c1ccncc1` (stereo not drawn), the GI50 came out at 14.5 µM in the assay with HeLa, 6 µM in assay [1] and 23.9 µM in the assay on Jurkat [3]. Moreover, the Activity in the assay on Jurkat [2] is given as 28.6%.

Consider `N#CC1=C(N)OC2=C(C(=O)c3ccccc3C2=O)C1c1ccccc1[N+](=O)[O-]` (stereo not drawn), for which the GI50 was found to be 11.2 µM with HeLa, 8.3 µM in [1] and 16.8 µM in the assay with Jurkat [3]. Also, in the assay with Jurkat [2], the Activity was 25%.

Consider `N#CC1=C(N)OC2=C(C(=O)c3ccccc3C2=O)C1c1ccccc1Br` (stereo not drawn), for which the results for the GI50 (with HeLa; in assay [1]; in the assay with Jurkat [3]) were 31.6 µM, 26.3 µM and 30.7 µM, respectively. Besides, in the assay on Jurkat [2], the Activity worked out at 41.7%.

As for `N#CC1=C(N)OC2=C(C(=O)c3ccccc3C2=O)C1c1ccc(O)cc1` (stereo not drawn), the GI50 came to 30.6 µM in the assay on HeLa, 8.6 µM in assay [1] and 85 µM in the assay with Jurkat [3]. The Activity in the assay on Jurkat [2] is 16.7%.

On to `N#CC1=C(N)OC2=C(C(=O)c3ccccc3C2=O)C1c1cccc(Br)c1` (stereo not drawn), for which the GI50 with HeLa was determined as 16.1 µM; in [1], 28.6 µM; in the assay with Jurkat [3], 20 µM. The Activity in the assay with Jurkat [2] was 48.4%.

Take `N#CC1=C(N)OC2=C(C(=O)c3ccccc3C2=O)C1c1ccc(C(=O)O)cc1` (stereo not drawn): the GI50 in the assay on HeLa worked out at 119 µM; in assay [1], 94.4 µM; in the assay with Jurkat [3], 332 µM. Also, the Activity with Jurkat [2] is recorded as 4.1%.
